Results published in patent publication US20190119193A1, “COMPOSITION FOR REGULATING PLANT GROWTH, METHOD FOR TREATING PLANTS THEREWITH, AND ACTIVE INGREDIENT THEREOF” (Ivan Aleksandrovich Starikov, priority 2016, published 2019).

Tests used:
[1] = system: tomato seeds (“Volgogradets” variety); assay: Laboratory tests of DMOA and DEOA for tomato seeds; type: in vivo; conditions: for Germinative energy: day 3; for Germinative capacity / Number of lateral roots / Sprout height / Taproot length: day 7
Protocol: (§1) After that DMOA and DEOA were dissolved in dimethyl sulfoxide to give solutions of 10 g/L concentration, then water was added to give aqueous solutions of DMOA with concentrations of 5.5·10^−5 M, 5.5·10^−6 M, 5.5·10^−7 M, 5.5·10^−8 M, 5.5·10^−9 M and DEOA with concentrations of 4.8·10^−5 M, 4.8·10^−6 M, 4.8·10^−7 M, 4.8·10^−8 M, 4.8·10^−9 M.
(§2) The obtained aqueous solutions of DMOA and DEOA were tested in the Scientific Center of Soil-Ecological Reasearch of the Federal State-Funded Educational Institution of Higher Education “Russian State Agrarian University—Moscow Agricultural Academy named after K. A. Timiryazev” (Moscow, 2015) according to the method described by T. A. Sergeeva (Method of laboratory testing of herbicides, Plant protection, 1963, No. 2, pp. 42-43). The primary laboratory screening of DMOA and DEOA was carried out on the seeds of five different crops: sunflower of “Voronezh 638” variety, soybean of “Vilana” variety, alfalfa of “Vega” variety, cucumber of “Nezhinsky” variety and tomato of “Volgogradets” variety.
(§3) Water was used as a reference.
(§4) A single experiment was carried out in a Petri dish. A circle of filter paper was laid at the bottom of the dish and treated with 5 ml of the work solution selected for the experiment. After that 25 seeds were uniformly laid on the surface of the treated filter paper. The Petri dish was kept at a temperature of 21-23° C. with illumination by fluorescent lamps for 7 days. The fourfold replication of the experiment within a single variant was applied.
(§5) The experiment identified the number and percentage of normally germinated seeds on day 3 (germinative energy) and on day 7 (germinative capacity) after the beginning of the experiment. On day 7 the main biometric parameters were also measured: sprout height (mm), taproot length (mm) and number of lateral roots (pcs).
(§6) The results were processed with the method of variance analysis with the help of STRAZ software in order to get the LSD0.05 (least significant difference between the test results on 5% significance level).

[2] = system: soybean seeds (“Vilana” variety); assay: Laboratory tests of DMOA and DEOA for soybean seeds; type: in vivo; conditions: for Germinative energy: day 3; for Germinative capacity / Number of lateral roots / Sprout height / Taproot length: day 7
Protocol: as §1, §2, §3, §4, §5, §6

Compound: CCOC(=O)C=C([O-])C(=O)OCC.[Na+] [DEOA, sodium salt of diethyl ester of oxaloacetic acid]
- Germinative energy ([1]; 4.8 · 10^−5 M): 93%
- Germinative capacity ([1]; 4.8 · 10^−5 M): 95%
- Number of lateral roots ([1]; 4.8 · 10^−5 M): 0.5 ↑ pcs.
- Sprout height ([1]; 4.8 · 10^−5 M): 25.3 mm
- Taproot length ([1]; 4.8 · 10^−5 M): 80.1 mm
- Germinative energy ([1]; 4.8 · 10^−6 M): 75%
- Germinative capacity ([1]; 4.8 · 10^−6 M): 80%
- Number of lateral roots ([1]; 4.8 · 10^−6 M): 0.2 pcs.
- Sprout height ([1]; 4.8 · 10^−6 M): 25.7 mm
- Taproot length ([1]; 4.8 · 10^−6 M): 77.7 mm
- Germinative energy ([1]; 4.8 · 10^−7 M): 88%
- Germinative capacity ([1]; 4.8 · 10^−7 M): 91%
- Number of lateral roots ([1]; 4.8 · 10^−7 M): 0.4 pcs.
- Sprout height ([1]; 4.8 · 10^−7 M): 26.3 mm
- Taproot length ([1]; 4.8 · 10^−7 M): 84.6 ↑ mm
- Germinative energy ([1]; 4.8 · 10^−8 M): 74%
- Germinative capacity ([1]; 4.8 · 10^−8 M): 76%
- Number of lateral roots ([1]; 4.8 · 10^−8 M): 0.2 pcs.
- Sprout height ([1]; 4.8 · 10^−8 M): 22.7 mm
- Taproot length ([1]; 4.8 · 10^−8 M): 77.9 mm
- Germinative energy ([1]; 4.8 · 10^−9 M): 82%
- Germinative capacity ([1]; 4.8 · 10^−9 M): 89%
- Number of lateral roots ([1]; 4.8 · 10^−9 M): 0.4 pcs.
- Sprout height ([1]; 4.8 · 10^−9 M): 21.3 ↓ mm
- Taproot length ([1]; 4.8 · 10^−9 M): 77.9 mm
- Germinative energy ([2]; 4.8 · 10^−5 M): 87 ↑ %
- Germinative capacity ([2]; 4.8 · 10^−5 M): 93%
- Number of lateral roots ([2]; 4.8 · 10^−5 M): 0.3 pcs.
- Sprout height ([2]; 4.8 · 10^−5 M): 15.3 mm
- Taproot length ([2]; 4.8 · 10^−5 M): 45.3 ↑ mm
- Germinative energy ([2]; 4.8 · 10^−6 M): 75%
- Germinative capacity ([2]; 4.8 · 10^−6 M): 87%
- Number of lateral roots ([2]; 4.8 · 10^−6 M): 0.6 pcs.
- Sprout height ([2]; 4.8 · 10^−6 M): 19.0 ↑ mm
- Taproot length ([2]; 4.8 · 10^−6 M): 37.7 mm
- Germinative energy ([2]; 4.8 · 10^−7 M): 72%
- Germinative capacity ([2]; 4.8 · 10^−7 M): 90%
- Number of lateral roots ([2]; 4.8 · 10^−7 M): 0.3 pcs.
- Sprout height ([2]; 4.8 · 10^−7 M): 14.7 mm
- Taproot length ([2]; 4.8 · 10^−7 M): 36.2 mm
- Germinative energy ([2]; 4.8 · 10^−8 M): 73%
- Germinative capacity ([2]; 4.8 · 10^−8 M): 93%
- Number of lateral roots ([2]; 4.8 · 10^−8 M): 0.4 pcs.
- Sprout height ([2]; 4.8 · 10^−8 M): 14.3 mm
- Taproot length ([2]; 4.8 · 10^−8 M): 33.6 mm
- Germinative energy ([2]; 4.8 · 10^−9 M): 80%
- Germinative capacity ([2]; 4.8 · 10^−9 M): 99 ↑ %
- Number of lateral roots ([2]; 4.8 · 10^−9 M): 1.2 ↑↑ pcs.
- Sprout height ([2]; 4.8 · 10^−9 M): 17.1 mm
- Taproot length ([2]; 4.8 · 10^−9 M): 46.5 ↑ mm

Compound: Sodium salt of dimethyl ester of oxaloacetic acid [DMOA]
- Germinative energy ([1]; 5.5 · 10^−5 M): 93%
- Germinative capacity ([1]; 5.5 · 10^−5 M): 95%
- Number of lateral roots ([1]; 5.5 · 10^−5 M): 0.2 pcs.
- Sprout height ([1]; 5.5 · 10^−5 M): 25.9 mm
- Taproot length ([1]; 5.5 · 10^−5 M): 83.2 ↑ mm
- Germinative energy ([1]; 5.5 · 10^−6 M): 88%
- Germinative capacity ([1]; 5.5 · 10^−6 M): 90%
- Number of lateral roots ([1]; 5.5 · 10^−6 M): 0.5 ↑ pcs.
- Sprout height ([1]; 5.5 · 10^−6 M): 24.6 mm
- Taproot length ([1]; 5.5 · 10^−6 M): 79.8 mm
- Germinative energy ([1]; 5.5 · 10^−7 M): 88%
- Germinative capacity ([1]; 5.5 · 10^−7 M): 98 ↑ %
- Number of lateral roots ([1]; 5.5 · 10^−7 M): 0.6 ↑ pcs.
- Sprout height ([1]; 5.5 · 10^−7 M): 23.7 mm
- Taproot length ([1]; 5.5 · 10^−7 M): 74.5 mm
- Germinative energy ([1]; 5.5 · 10^−8 M): 98 ↑ %
- Germinative capacity ([1]; 5.5 · 10^−8 M): 98 ↑ %
- Number of lateral roots ([1]; 5.5 · 10^−8 M): 0.1 pcs.
- Sprout height ([1]; 5.5 · 10^−8 M): 23.4 mm
- Taproot length ([1]; 5.5 · 10^−8 M): 83.6 ↑ mm
- Germinative energy ([1]; 5.5 · 10^−9 M): 88%
- Germinative capacity ([1]; 5.5 · 10^−9 M): 90%
- Number of lateral roots ([1]; 5.5 · 10^−9 M): 0.7 ↑ pcs.
- Sprout height ([1]; 5.5 · 10^−9 M): 24.4 mm
- Taproot length ([1]; 5.5 · 10^−9 M): 86.9 ↑↑ mm
- Germinative energy ([2]; 5.5 · 10^−5 M): 78%
- Germinative capacity ([2]; 5.5 · 10^−5 M): 89%
- Number of lateral roots ([2]; 5.5 · 10^−5 M): 0.2 pcs.
- Sprout height ([2]; 5.5 · 10^−5 M): 16.0 mm
- Taproot length ([2]; 5.5 · 10^−5 M): 35.5 mm
- Germinative energy ([2]; 5.5 · 10^−6 M): 82%
- Germinative capacity ([2]; 5.5 · 10^−6 M): 97%
- Number of lateral roots ([2]; 5.5 · 10^−6 M): 0.0 pcs.
- Sprout height ([2]; 5.5 · 10^−6 M): 19.0 ↑ mm
- Taproot length ([2]; 5.5 · 10^−6 M): 37.6 mm
- Germinative energy ([2]; 5.5 · 10^−7 M): 65%
- Germinative capacity ([2]; 5.5 · 10^−7 M): 90%
- Number of lateral roots ([2]; 5.5 · 10^−7 M): 0.0 pcs.
- Sprout height ([2]; 5.5 · 10^−7 M): 19.0 ↑ mm
- Taproot length ([2]; 5.5 · 10^−7 M): 39.5 mm
- Germinative energy ([2]; 5.5 · 10^−8 M): 77%
- Germinative capacity ([2]; 5.5 · 10^−8 M): 87%
- Number of lateral roots ([2]; 5.5 · 10^−8 M): 0.0 pcs.
- Sprout height ([2]; 5.5 · 10^−8 M): 19.5 ↑↑ mm
- Taproot length ([2]; 5.5 · 10^−8 M): 38.4 mm
- Germinative energy ([2]; 5.5 · 10^−9 M): 72%
- Germinative capacity ([2]; 5.5 · 10^−9 M): 83%
- Number of lateral roots ([2]; 5.5 · 10^−9 M): 0.0 pcs.
- Sprout height ([2]; 5.5 · 10^−9 M): 17.8 ↑ mm
- Taproot length ([2]; 5.5 · 10^−9 M): 37.0 mm
